Source: the NIST ThermoML archive (doi:10.1016/j.jct.2009.04.001)

How the values were obtained:
[1] = for surface tension liquid-gas: Pendant drop shape; for mass density: Liquid, Vibrating tube method
[2] = xn = mol fraction of the nth substance listed; settings: for surface tension liquid-gas: Pendant drop shape; for mass density: 101 kPa, Liquid, Vibrating tube method

COCCOC [1,2-dimethoxyethane]
[1]
Settings	surface tension liquid-gas [mN/m]
298.15 K	24.27
303.15 K	23.73
308.15 K	23.16

mass density [kg/m3], [1]
Settings	298.15 K	303.15 K	308.15 K
101 kPa	–	856.8	–
101.33 kPa	861.36	856.79	851.24

Cc1ccc(C)cc1 [1,4-dimethylbenzene]
[1]
Settings	surface tension liquid-gas [mN/m]
298.15 K	28.11
303.15 K	27.59
308.15 K	27.07

[1], 101.33 kPa
Settings	mass density [kg/m3]
298.15 K	856.95
303.15 K	852.61
308.15 K	848.27

COCCOC [1,2-dimethoxyethane] + Cc1ccccc1C
[2]
Settings	mass density [kg/m3]	surface tension liquid-gas [mN/m]
298.15 K, x1 = 0.0995	874.01	29.05
298.15 K, x1 = 0.1998	872.89	28.28
298.15 K, x1 = 0.3003	871.73	27.6
298.15 K, x1 = 0.4004	870.51	27.08
298.15 K, x1 = 0.4998	869.24	26.63
298.15 K, x1 = 0.6001	867.86	26.2
298.15 K, x1 = 0.7008	866.37	25.78
298.15 K, x1 = 0.7996	864.86	25.37
298.15 K, x1 = 0.8992	863.22	24.96
298.15 K, x1 = 0.95	862.34	24.64
298.15 K, x1 = 1	861.36	24.27
303.15 K, x1 = 0.0996	869.77	28.45
303.15 K, x1 = 0.1997	868.64	27.73
303.15 K, x1 = 0.3007	867.45	27.08
303.15 K, x1 = 0.3997	866.2	26.61
303.15 K, x1 = 0.5001	864.88	26.19
303.15 K, x1 = 0.6012	863.46	25.78
303.15 K, x1 = 0.7009	861.98	25.37
303.15 K, x1 = 0.7988	860.43	25
303.15 K, x1 = 0.8998	858.74	24.53
303.15 K, x1 = 0.9498	857.85	24.17
303.15 K, x1 = 1	856.8	23.73
308.15 K, x1 = 0.0998	865.45	27.92
308.15 K, x1 = 0.2005	864.2	27.23
308.15 K, x1 = 0.3003	862.9	26.61
308.15 K, x1 = 0.4009	861.51	26.17
308.15 K, x1 = 0.4991	860.07	25.77
308.15 K, x1 = 0.5995	858.53	25.39
308.15 K, x1 = 0.7013	856.88	24.99
308.15 K, x1 = 0.7991	855.2	24.58
308.15 K, x1 = 0.9008	853.35	24.07
308.15 K, x1 = 0.9503	852.39	23.66
308.15 K, x1 = 1	851.24	23.16
